Source: patent US20260216163A1, “CANCER COMBINATION THERAPY INCLUDING A FLT3-INHIBITOR” (RYVU THERAPEUTICS S.A., priority 2022, published 2026)
pIC50: −log10 of the molar value. Like-named read-outs stand apart in the source and are kept apart here.

Tests used:
MOLM-13 cells (FLT3 ITD) = test: in vitro standard cytotoxicity (MTS, 72 h), MEN and Gilt single agent or combination, Combination Index; type: cell-based, human; details: MTS (Table 2); for pIC50: Homo sapiens, read-out: IC50 dose level (single agent cytotoxicity)
Description: (§1) In an in vitro standard cytotoxicity experiment, two AML cell lines (MV4-11 [FLT3 ITD] and MOLM-13 [FLT3 ITD]) were treated for 72 hours with MEN and Gilt (a Type I inhibitor) either as a single agent or in combination.
(§2) Human acute myeloid leukemia cell lines MV4-11 and MOLM-13 were obtained from DSMZ, Braunschweig, Germany (ACC102 and ACC554). […] All cells were incubated at 37° C., 5% CO2, 80% relative humidity.

MV4-11 cells (FLT3 ITD) = test: as above; type: cell-based, human; details: for pIC50: Homo sapiens, read-out: IC50 dose level (single agent cytotoxicity)
Description: as §1, §2

[1] = test system: KG-1 cells (FLT wildtype); test: as above; type: cell-based, human; details: for pIC50: Homo sapiens
Excerpt: Human acute myeloid leukemia cell line KG-1 was obtained from DSMZ, Braunschweig, Germany (ACC14).

[2] = test system: MV4-11 (FLT3 ITD) cell line xenograft; test: in vivo AML xenograft study, tumor volume inhibition; details: MV4-11 xenograft, per os from day 19, MEN 25 mg/kg Q1 × 14 d, Gilteritinib 3 mg/kg Q1 × 22 d, combination each as above
Description: For the AML xenograft model, 10×10^6 MV4-11 cells were re-suspended in 0.2 ml of BME type III (Trevigen) at 5.6 mg/ml+DPBS (1:1) and then injected subcutaneously into the right flank of 6-8 weeks old female SCID mice (Charles River, Calco, Italy).
After injection, mice were maintained in micro isolator cages under continuously monitored environmental conditions. Drinking water and specific sterilized diet (VRF1, Charles River) were supplied ad libitum. […] Twice a week, tumor growth and body weight were evaluated and recorded.
(§3) The outcome evaluation was carried out as follows: tumor volumes were measured by caliper, and tumor masses were calculated using the following formula: [length (mm)×width^2 (mm)×d]/2, assuming density, d=1 mg/mm^3 for tumor tissue (Teicher B. Totowa, 1997).
The treatment efficacy was assessed as TVI % in treated versus control mice, using the following formula: TVI %=(1−Volume Average of treated tumor mass/Volume Average of control tumor)*100.
Mice were sacrificed when tumors reached a volume of around 10% of total body weight or when mice's body weight decreased by more than 20% compared to control animals for 7 days or more. Animals were euthanized with carbon dioxide exposure according to the standard procedures (Annex IV of Directive 2010/63/EU; 2010).
GraphPad Prism software (GraphPAD Software Inc., California) was used for statistical analysis. Statistical differences were considered to be significant at p-value<0.05 using the two-tailed Mann-Whitney rank test.

[3] = test system: MOLM-13 (FLT3 ITD) cell line xenograft; test: as above; details: MOLM-13 xenograft, per os from day 15, MEN 25 mg/kg Q1 × 14 d, Gilteritinib 3 mg/kg Q1 × 14 d, combination each as above
Description: For the AML xenograft model, 10×10^6 MOLM-13 cells were re-suspended in 0.2 ml of BME type III (Trevigen) at 5.6 mg/ml+DPBS (1:1) and then injected subcutaneously into the right flank of 6-8 weeks old female CD-1 mice (Charles River, Calco, Italy).
After injection, mice were maintained in micro isolator cages under continuously monitored environmental conditions. Drinking water and specific sterilized diet (VRF1, Charles River) were supplied ad libitum. Environmental conditions, as well as the procedures for housing and handling the animals, complied with the UKCCCR guideline (Workman P et al., 2010) and the European Convention for the protection of vertebrate animals used for experimental and other scientific purposes (Directive 2010/63/EU; 2010). Twice a week, tumor growth and body weight were evaluated and recorded.
as §3
The treatment efficacy was assessed as TVI % in treated versus control mice, using the following formula: TVI %=(1−Volume Average of treated tumor mass/Volume Average of control tumor)*100. […]

MOLM-13 cells [4] = test: in vitro standard cytotoxicity (MTS, 72 h), MEN and Quizartinib single agent or combination, Combination Index; details: for pIC50: Homo sapiens, MOLM-13, 72 h, read-out: IC50 (single agent cytotoxicity)
Description: (§4) The synergistic effect of the combination was measured according to the Combination Index calculation (Chou T C, 2006).
(§5) MOLM-13 cells were grown in RPMI with 20% FBS and incubated at 37° C., 5% CO2, 80% relative humidity.
(§6) 20907) were dissolved in DMSO, divided into aliquots and stored at −80° C. until use. Stock solutions were added at appropriate concentration in culture medium before the addition to cells.
(§7) For cytotoxicity studies cells were seeded at appropriate density (50.000 cells/well) prior to addition of MEN and Quiz at day 0. […] After 72 hours, CellTiter 96 Aqueous One Solution Reagent (MTS) (Promega, Madison. WI, USA) was added to assess the cell viability. Fluorescence was measured 4 h later using Tecan Infinite M200 (Tecan Trading AG, Switzerland), recording absorbance at 490 nm. Quantitative measurement of synergism/antagonism was evaluated with Combination Index (CI) on the Fraction affected (Fa) using CompuSyn (ComboSyn, Inc. Paramus, NJ, USA) (Chou T C, 2006).

MOLM-13 cells [5] = test system: MOLM-13 cells
Description: as §4, §5, §6, §7

[6] = MOLM-13 cells, 72 h, MTS (Table 5)

Row | Structure (SMILES) | pIC50 (MOLM-13 cells (FLT3 ITD)) | IC10 dose level (single agent cytotoxicity) (MOLM-13 cells (FLT3 ITD)) | IC25 dose level (single agent cytotoxicity) (MOLM-13 cells (FLT3 ITD)) | IC75 dose level (single agent cytotoxicity) (MOLM-13 cells (FLT3 ITD)) | IC10 dose level (single agent cytotoxicity) (MV4-11 cells (FLT3 ITD)) | IC25 dose level (single agent cytotoxicity) (MV4-11 cells (FLT3 ITD)) | IC75 dose level (single agent cytotoxicity) (MV4-11 cells (FLT3 ITD)) | pIC50 (MV4-11 cells (FLT3 ITD)) | IC10 (single agent cytotoxicity) [1] | IC25 (single agent cytotoxicity) [1] | IC75 (single agent cytotoxicity) [1] | pIC50 [1] | TVI % Day 33 [2] | TVI % Day 40 [2] | TVI % Day 29 [3] | pIC50 (MOLM-13 cells [4]) | other results
1 | CCc1nc(C(N)=O)c(Nc2ccc(N3CCC(N4CCN(C)CC4)CC3)c(OC)c2)nc1NC1CCOCC1 [Gilteritinib] | 7.96 | 1.4 nM | 4 nM | 32 nM | 2.2 nM | 4.2 nM | 14 nM | 8.10 | 35.34 nM | 150.2 nM | 2712 nM | 6.20 | 84.1% | 87.6% | 60.1% |  | 
2 | CC(C)n1c(C2CCNCC2)nc2c([N+](=O)[O-])c(Br)c(Br)cc21 [MEN, 5,6-dibromo-4-nitro-2-(piperidin-4-yl)-1-(propan-2-yl)-1H-1,3-benzodiazole] | 6.29 | 87 nM | 210 nM | 1230 nM | 151 nM | 293 nM | 1103 nM | 6.24 | 57.48 nM | 203 nM | 2530 nM | 6.14 | 57.2% | 53.1% | 38.8% | 6.29 | IC10 (single agent cytotoxicity) (MOLM-13 cells [4]; [6]): 87.29 nM; IC25 (single agent cytotoxicity) (MOLM-13 cells [4]; [6]): 322.2 nM; IC75 (single agent cytotoxicity) (MOLM-13 cells [4]; [6]): 1234 nM
3 | CC(C)(C)c1cc(NC(=O)Nc2ccc(-c3cn4c(n3)sc3cc(OCCN5CCOCC5)ccc34)cc2)no1 [QUIZ, Quizartinib] |  |  |  |  |  |  |  |  |  |  |  |  |  |  |  | 9.02 | IC10 (single agent cytotoxicity) (MOLM-13 cells [5]): 0.374 nM; IC25 (single agent cytotoxicity) (MOLM-13 cells [5]): 0.595 nM; IC75 (single agent cytotoxicity) (MOLM-13 cells [5]): 1.504 nM
